Results taken from patent US11771673B2, “On site generated performic acid compositions for teat treatment” (ECOLAB USA INC., priority 2018, dated 2023).

Assay: Accelerated stability of hydrogen peroxide premixes with different self-indicators under 40° C.
Type: physicochemical
Conditions: approximately 13 weeks
Procedure: The hydrogen peroxide premixes were prepared according to Table 10 with differing types of FD&C dyes. The compositions were stored in a 40° C. oven for approximately 13 weeks. Their stability, as evaluated by the presence of hydrogen peroxide, was compared and is depicted in Table 11.

For `O=S(=O)([O-])c1ccc(N=Nc2c(O)ccc3cc(S(=O)(=O)[O-])ccc23)cc1.[Na+].[Na+]` [FD&C yellow 6], the “stability of dye in hydrogen peroxide premix” value was “significantly more stable than FD&C yellow 5”.
